Reference: patent US20240417408A1, “SMALL MOLECULE INHIBITORS OF KRAS G12C MUTANT” (MERCK SHARP & DOHME CORP., priority 2021, published 2024)

What was measured:
[1] = biological target: T1, Recombinant KRAS G12C mutant protein (amino acids 1-169, SEQ ID NO: 1) (Homo sapiens, UniProt P01116, G12C); test: Test Example 1: inhibitory activity on KRAS G12C nucleotide (GDP-GTP) exchange reaction in vitro; assay type: biochemical; conditions: BODIPY FL GDP-bound KRAS G12C incubated with compound at 25° C. for 1 hour, then SOS1 and GMPPNP, read-out: GNE IC50
T1 construct: His6 (N); TEV protease site (ENLYFQG; named from own knowledge) (N); made in house; host or cells: E. coli
Procedure: Test Example 1: Evaluation of inhibitory activity of compounds on KRAS G12C nucleotide (GDP-GTP) exchange reaction in vitro
Recombinant KRAS G12C mutant protein (amino acids 1-169, SEQ ID NO: 1) and cleaved recombinant SOS1 (amino acids 564-1049, SEQ ID NO:2) proteins were expressed in E. coli and purified by affinity chromatography.
To prepare BODIPY FL GDP-bound KRAS G12C protein, 50 μM KRAS G12C protein was incubated with 0.5 mM BODIPY FL GDP in a loading buffer (20 mM Tris-HCl (pH 7.5), 50 mM NaCl, 1 mM DTT and 2.5 mM EDTA) for 1 hour on ice. After the incubation, MgCl2 was added to a final concentration of 10 mM, followed by incubation at room temperature for 30 minutes. The mixture was allowed to pass through a NAP-5 column to remove free nucleotides and purified BODIPY FL GDP-bound KRAS G12C protein was used for compound evaluation.
For the measurement of the inhibitory activity of compounds on GDP-GTP exchange rate of recombinant KRAS G12C, BODIPY FL GDP-bound KRAS G12C protein was incubated with various concentrations of compound in a reaction buffer (20 mM Tris-HCl (pH 7.5), 100 mM NaCl, 1 mM MgCl2, 2 mM DTT, 0.1% Tween 20) at 25° C. for 1 hour. After the incubation, recombinant SOS1 and Guanosine-5′-[(β,γ)-imido]triphosphate, Tetralithium salt (GMPPNP) (Jena Bioscience GmbH) were added and incubated at room temperature for 30 minutes to proceed SOS1-dependent GDP-GTP exchange reaction on KRAS G12C. Replacement of BODIPY FL GDP by GMPPNP was measured by calculating the ratio of fluorescence intensities of BODIPY FL before and after the exchange reaction. Inhibition % was calculated by setting the fluorescence ratio from the reaction without test compound (DMSO control) and the fluorescence ratio from the reaction without SOS1 and GMPPNP as 0% and 100% inhibition, respectively. IC50 values were calculated from dose titration curve using curve fitting by XLfit software (IDBS).

[2] = tested on: MIA PaCa-2 cells; test: Test Example 3: growth inhibition activity on KRAS-G12C mutant cell line (MIA PaCa-2); assay type: cell-based; conditions: Homo sapiens, 72 h, MIA PaCa-2, 3-day culture, CellTiter-Glo 3D, read-out: CTX MiaPaCa IC50
Procedure: Test Example 3: Assay of Growth Inhibition Activity on KRAS-G12C Mutant Cell Line (MIA PaCa-2) (In Vitro)
MIA PaCa-2 cells (provided by Sumitomo Dainippon Pharma Co., Ltd.), which are a KRAS-G12C mutant human pancreas cancer cell line, were suspended in a 10% fetal bovine serum-containing RPMI1640 medium (manufactured by Fujifilm Wako Pure Chemical Corporation.). The cell suspension was seeded into each well of a 384-well U bottom microplate and cultured in an incubator containing 5% CO2 gas at 37° C. for 1 day. The compounds obtained in the Examples section were used as test compounds and were dissolved in DMSO, respectively, and each test compound was diluted with DMSO to give a concentration 500 times the final concentration. The resultant solution of the test compound in DMSO was diluted with the medium used for suspending cells and added to each well of the cell-culture plate to give a DMSO final concentration of 0.2%, followed by culture in an incubator containing 5% CO2 gas at 37° C. for another 3 days. The cell count after 3-day culture in the presence of the test compound was measured using CellTiter-Glo 3D Reagent (manufactured by Promega Corporation). To all cells were added with CellTiter-Glo 3D Reagent and mixed for 10 minutes. 30 minutes after mixing, luminescence was measured by a plate reader. The growth inhibition rate was calculated from the following equation, and the concentration of the test compound at which 50% inhibition was achieved (IC50 (nM)) was determined.
[formula] • T: the emission intensity in a well into which a test compound was added. • C: the emission intensity in a well into which a test compound was not added.

[3] = biological target: T2, interaction between KRAS G12C and cRAF-RBD (Homo sapiens, UniProt P01116, G12C); test: Test Example 2: inhibitory activity on interaction between KRAS G12C and cRAF (Alpha technology); assay type: binding; conditions: GMPPNP-bound KRAS G12C incubated with compound at 25° C. for 1 hour, then cRAF-RBD
T2 construct: TEV protease site (ENLYFQG); made in house; host or cells: E. coli
Procedure: Test Example 2: Evaluation of Inhibitory Activity of Compounds on Interaction Between KRAS G12C and cRAF (In Vitro)
Interaction between recombinant KRAS G12C mutant protein (SEQ ID NO: 1) and cRAF RAS-binding domain (cRAF-RBD, amino acids 50-132, Jena Biosciences GmbH) was measured using Alpha technology (PerkinElmer Inc.).
Recombinant KRAS G12C protein with an N-terminal His-tag was expressed in E. coli and purified by affinity chromatography. To prepare GTP-bound form and GDP-bound form of KRAS G12C protein, 50 μM KRAS G12C protein was incubated with 1 mM GMPPNP (Jena Bioscience GmbH) and 1 mM GDP, respectively, in a loading buffer (20 mM Tris-HCl (pH 7.5), 50 mM NaCl, 1 mM DTT and 2.5 mM EDTA) for 1 hour on ice. After the incubation, MgCl2 was added to a final concentration of 10 mM, followed by incubation at room temperature for 30 minutes. The mixture was allowed to pass through a NAP-5 column to remove free nucleotides and purified, and the resultant nucleotide-bound KRAS G12C protein was used for compound evaluation.
For the measurement of the inhibitory activity of compounds on interaction between KRAS G12C and cRAF-RBD, GMPPNP-bound KRAS G12C protein was incubated with various concentrations of compound in a reaction buffer (20 mM Tris-HCl (pH 7.5), 100 mM NaCl, 1 mM MgCl2, 1 mM TCEP, 0.1% Tween 20) at 25° C. for 1 hour. After the incubation, recombinant cRAF-RBD and Alpha detection reagents were added and incubated at room temperature for 1.5 hours for binding. Interaction of KRAS G12C and cRAF-RBD was monitored by measuring Alpha signal. Inhibition % was calculated using the signal from the reaction without test compound (DMSO control) as 0% inhibition and the signal from the reaction using GDP-bound KRAS G12C in place of GMPPNP-bound KRAS G12C as 100% inhibition. IC50 values were calculated from dose titration curve using curve fitting by XLfit software (IDBS).

T1 sequence (P01116 with tags, fused parts or gaps isoform P01116-2 G12C): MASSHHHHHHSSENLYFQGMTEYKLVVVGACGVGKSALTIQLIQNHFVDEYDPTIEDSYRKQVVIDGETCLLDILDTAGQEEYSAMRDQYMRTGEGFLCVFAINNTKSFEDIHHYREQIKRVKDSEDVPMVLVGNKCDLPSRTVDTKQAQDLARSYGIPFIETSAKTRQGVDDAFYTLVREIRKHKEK
T2 sequence (P01116 with tags, fused parts or gaps isoform P01116-2 G12C): as above

Row | SMILES | IC50 [1] | IC50 [2] | IC50 [3]
1 | COC1CCN(C/C=C/C(=O)N2CCN(c3nc(OC[C@@H]4CCCN4C)nc4c3COC(c3cccc5ccccc35)C4)C[C@@H]2CC#N)CC1 (stereo partly drawn) [Example 4, 2-((2S)-1-((E)-4-(4-methoxy-piperidin-1-yl)but-2-enoyl)-4-(2-(((S)-1-methylpyrroli-din-2-yl)methoxy)-7-(naph-thalen-1-yl)-7,8-dihydro-5H-pyrano[4,3-d]pyrimidin-4-yl)piperazin-2-yl)acetonitrile] | 7.19 nM | 333 nM | 9580 nM
2 | C#Cc1cccc2cc(O)cc([C@@H]3Cc4nc(OCC5(CN(C)C)CC5)nc(N5CCN(C(=O)/C=C/CN6CCC(OC)CC6)[C@@H](CC#N)C5)c4CO3)c12 [Example 13, 2-((S)-4-((S)-2-((1-((dimeth-ylamino)methyl)cycloprop-yl)methoxy)-7-(8-ethynyl-3-hydroxynaphthalen-1-yl)-7,8-dihydro-5H-pyrano[4,3-d]pyrimidin-4-yl)-1-((E)-4-(4-methoxypiperidin-1-yl)-but-2-enoyl)piperazin-2-yl)-acetonitrile] | 0.91 nM | 6.21 nM | 51.3 nM
3 | C#Cc1cccc2cc(O)cc([C@@H]3Cc4nc(OC[C@@H]5CCCN5C)nc(N5C[C@H](CC#N)N(C(=O)/C=C/CN6CCC(OC)CC6)C[C@@H]5C)c4CO3)c12 [Example 15, 2-((2S,5S)-4-((S)-7-(8-ethynyl-3-hydroxynaph-thalen-1-yl)-2-(((S)-1-meth-ylpyrrolidin-2-yl)methoxy)-7,8-dihydro-5H-pyrano[4,3-d]pyrimidin-4-yl)-1-((E)-4-(4-methoxypiperidin-1-yl)-but-2-enoyl)-5-methyl-piperazin-2-yl)acetonitrile] | 103 nM | 1920 nM | > 6670 nM
4 | COC1CCN(C/C=C/C(=O)N2CCN(c3nc(OC[C@@H]4CCCN4C)nc4c3COC(c3cccc5cccc(Br)c35)C4)C[C@@H]2CC#N)CC1 (stereo partly drawn) [Example 5, 2-((2S)-4-(7-(8-bromonaph-thalen-1-yl)-2-(((S)-1-meth-ylpyrrolidin-2-yl)methoxy)-7,8-dihydro-5H-pyrano[4,3-d]pyrimidin-4-yl)-1-((E)-4-(4-methoxypiperidin-1-yl)-but-2-enoyl)piperazin-2-yl)-acetonitrile] | 2.63 nM | 177 nM | 2820 nM
5 | C#Cc1cccc2cccc(C3Cc4nc(OCC5(CN6CCOCC6)CC5)nc(N5CCN(C(=O)/C=C/CN6CCC(OC)CC6)[C@@H](CC#N)C5)c4CO3)c12 (stereo partly drawn) [Example 6, 2-((2S)-4-(7-(8-ethynylnaph-thalen-1-yl)-2-((1-(morpho-linomethyl)cyclopropyl)-methoxy)-7,8-dihydro-5H-pyrano[4,3-d]pyrimidin-4-yl)-1-((E)-4-(4-methoxy-piperidin-1-yl)but-2-enoyl)-piperazin-2-yl)acetonitrile] | 15.4 nM | 268 nM | 1260 nM
6 | COC1CCN(C/C=C/C(=O)N2CCN(c3nc(OCC4(CN5CCOCC5)CC4)nc4c3COC3(CCc5cccc(Br)c53)C4)C[C@@H]2CC#N)CC1 (stereo partly drawn) [Example 21, 2-((2S)-4-(7-bromo-2′-((1-(morpholinomethyl)cyclopropyl)methoxy)-2,3,5′,8′-tetrahydrospiro[indene-1,7′-pyrano[4,3-d]pyrimidin]-4′-yl)-1-((E)-4-(4-methoxypiperidin-1-yl)but-2-enoyl)piperazin-2-yl)acetonitrile] | 287 nM | 1130 nM | > 6670 nM

More lines, in order of falling IC50 [1], values ahead:

Row | IC50 [1] | IC50 [2] | IC50 [3] | SMILES
7 | 255 nM | 543 nM | > 6670 nM | C#Cc1cccc2cc(O)cc([C@@H]3Cc4nc(OCC5(COC)CC5)nc(N5CCN(C(=O)/C=C/CN6CCC(OC)CC6)[C@@H](CC#N)C5)c4CO3)c12 [Example 17, 2-((S)-4-((S)-7-(8-ethynyl-3-hydroxynaphthalen-1-yl)-2-((1-(methoxymethyl)-cyclopropyl)methoxy)-7,8-dihydro-5H-pyrano[4,3-d]-pyrimidin-4-yl)-1-((E)-4-(4-methoxypiperidin-1-yl)but-2-enoyl)piperazin-2-yl)-acetonitrile]
8 | 174 nM | 3350 nM | > 6670 nM | COC1CCN(C/C=C/C(=O)N2CCN(c3nc(OCC4(CN5CCOCC5)CC4)nc4c3COC3(Cc5ccccc5C3)C4)C[C@@H]2CC#N)CC1 [Example 20, (S,E)-2-(1-(4-(4-methoxypiperidin-1-yl)but-2-enoyl)-4-(2′-((1-(morpholinomethyl)cyclopropyl)methoxy)-1,3,5′,8′-tetrahydrospiro[indene-2,7′-pyrano[4,3-d]pyrimidin]-4′-yl)piperazin-2-yl)acetonitrile]
9 | 3.53 nM | 111 nM | 43700 nM | CO[C@H]1CC[C@H](NC/C=C/C(=O)N2CCN(c3nc(OC[C@@H]4CCCN4C)nc4c3COC(c3cccc5ccccc35)C4)C[C@@H]2CC#N)CC1 (stereo partly drawn) [Example 2, 2-((2S)-1-((E)-4-(((1r,4S)-4-methoxycyclohexyl)amino)-but-2-enoyl)-4-(2-(((S)-1-methylpyrrolidin-2-yl)meth-oxy)-7-(naphthalen-1-yl)-7,8-dihydro-5H-pyrano[4,3-d]pyrimidin-4-yl)piperazin-2-yl)acetonitrile]
10 | 0.82 nM | 7.88 nM | 531 nM | C#Cc1cccc2cc(O)cc([C@@H]3Cc4nc(OC[C@@H]5CCCN5C)nc(N5C[C@H](CC#N)N(C(=O)/C=C/CN6CCC(OC)CC6)C[C@H]5C)c4CO3)c12 [Example 14, 2-((2S,5R)-4-((S)-7-(8-ethynyl-3-hydroxynaph-thalen-1-yl)-2-(((S)-1-meth-ylpyrrolidin-2-yl)methoxy)-7,8-dihydro-5H-pyrano[4,3-d]pyrimidin-4-yl)-1-((E)-4-(4-methoxypiperidin-1-yl)-but-2-enoyl)-5-methylpiper-azin-2-yl)acetonitrile]
